Test system: peripheral axons
Test: Threshold tracking of peripheral nerve excitability in anesthetized rats
Type: in vivo
Conditions: rat
Procedure: Threshold Tracking to Measure the Effects of Example 1 at 3.10 and 30 mg/kg IP on Peripheral Nerve Excitability
Threshold tracking is a non-invasive technique that allows measurement of the excitability properties of peripheral axons by providing information about their membrane potential and ion channel function.
16 male Wistar rats from Charles River, weighing between 307-446 g ware used. Animals are group housed with standard housing conditions (4 per cage, 07:00 h to 19:00 h light phase, constant temperature (21° C.) and humidity, and free access to food and water, as well as environmental enrichment).
Rats are anesthetized with isoflurane (2-2.5%, O2 at 0.5 L/min) and then placed on their back on a heating pad to keep the tail temperature above 32° C. The placement of the ring electrodes are marked out and the marked sections of the tail are scraped with a blade to remove hair and the top layer of skin. The sites are cleaned with water and dried, allowing fora good conduction between the skin and the sticky electrodes.
A sticky ring stimulating electrode (+ve anode) is wrapped around the foot. A second sticky ring stimulating electrode (−ve cathode) is wrapped 1.5 cm from the base of the tail. A needle recording electrode is placed just off center on the top of the tail, 6 cm distal to the stimulating cathode at the base of the tail. A needle reference electrode is placed just off center on the top of the tail, 2 cm distal to the recording electrode. A sticky ground electrode is wrapped around the tail 2 cm proximal from the recording electrode.
• Start the Multitrack program (description below) and Spike. • Record 15 min of stable baseline • After the 15 min, dose with Example 1 or HEC • Take blood spot for PK at the following: • 10 min post dose • 20 min post dose • 30 min post dose • 40 min post dose • 45 min after IP (intraperitoneal) dosing with Example 1, dose XE-991 (XE-991 is a commercially available compound that blocks KCNQ potentiator effects in a formalin assay in vivo—see Y. Zheng, et al., “Activation of peripheral KCNQ channels relieves gout pain,” Pain, 156 (2015) 1025-1035; and R. Zaczek, et al., “Two New Potent Neurotransmitter Release Enhancers, 10,10-Bis(4-Pyridinylmethyl)-9(10H)-Anthracenone and 10,10-Bis(2-Fluoro-4-Pyridinylmethyl)-9(10H)-Anthracenone: Comparison to Linopirdine” The Journal of Pharmacology and Experimental Therapeutics, 285:724-730, 1998. • (XE-991 is only dosed after Example 1 at 30 mg/kg) • Take blood spot for PK at the following: • 10 min post dose (55 min post Example 1 administration) • 20 min post dose (65 min post Example 1 administration) • 30 min post dose (75 min post Example 1 administration) • 40 min post dose (85 min post Example 1 administration)
In threshold tracking assay to measure the excitability properties of peripheral axons studies in rat, compound is administered by IP at 3, 10 or 30 mg/kg using 1% hydroxyethylcellulose: 0.25% polysorbate 80:0.05% antifoam:purified water (HEC) formulation. Dry blood spots (DBS) are collected around 10, 20, 30 and terminal 40 min post-dose. DBS samples are dried at RT for around 2 h. Brain samples are obtained at terminal time point and frozen until analysis. DBS samples are shipped and stored at RT.

Compound: CC(C)(C)[C@H](O)CNC(=O)NCc1ccnc(OCC(F)(F)F)c1 [Example 1, 1-[(2S)-2-hydroxy-3,3-dimethyl-butyl]-3-[[2-(2,2,2-trifluoroethoxy)-4-pyridyl]methyl]urea]
- Threshold Tracking absolute threshold for 40% CMAP (±SEM) (3 mg/kg (IP)): 121 (±10) % baseline
- Threshold Tracking absolute threshold for 40% CMAP (±SEM) (10 mg/kg (IP)): 140 (±8) % baseline
- Threshold Tracking absolute threshold for 40% CMAP (±SEM) (30 mg/kg (IP)): 160 (±18) % baseline
- absolute threshold compared with vehicle (30 mg/kg IP, Bonferroni multiple comparisons test): significantly increased absolute threshold
